Data taken from ChEMBL document CHEMBL3046084, “Synthesis and evaluation of p-N,N-dialkyl substituted chalcones as anti-cancer agents” (Med Chem Res, 2013).
The source made the active and inactive calls. The rule behind the calls is not given here.

Tests used:
MCF7 = assay: Anticancer activity against Homo sapiens (human) MCF7 cells assessed as inhibition of cell viability by SRB assay; format: functional, cell-based
[1] = system: Mycolicibacterium smegmatis; assay: Anti-mycobacterial activity against Mycobacterium smegmatis assessed as diameter of growth inhibition zone at 10 mM; format: functional; details: read-out: DIZ
[2] = biological target: Beta-secretase 1 (Homo sapiens) (UniProt P56817); assay: Inhibition of Homo sapiens (human) recombinant BACE1 using FRET peptide Abz-YIWDEIDLMVLD-DNP as substrate at 50 uM preincubated with enzyme for 30 min prior to substrate addition measured by plate reader analysis
Sequence of Beta-secretase 1 (Homo sapiens) (P56817 whole entry): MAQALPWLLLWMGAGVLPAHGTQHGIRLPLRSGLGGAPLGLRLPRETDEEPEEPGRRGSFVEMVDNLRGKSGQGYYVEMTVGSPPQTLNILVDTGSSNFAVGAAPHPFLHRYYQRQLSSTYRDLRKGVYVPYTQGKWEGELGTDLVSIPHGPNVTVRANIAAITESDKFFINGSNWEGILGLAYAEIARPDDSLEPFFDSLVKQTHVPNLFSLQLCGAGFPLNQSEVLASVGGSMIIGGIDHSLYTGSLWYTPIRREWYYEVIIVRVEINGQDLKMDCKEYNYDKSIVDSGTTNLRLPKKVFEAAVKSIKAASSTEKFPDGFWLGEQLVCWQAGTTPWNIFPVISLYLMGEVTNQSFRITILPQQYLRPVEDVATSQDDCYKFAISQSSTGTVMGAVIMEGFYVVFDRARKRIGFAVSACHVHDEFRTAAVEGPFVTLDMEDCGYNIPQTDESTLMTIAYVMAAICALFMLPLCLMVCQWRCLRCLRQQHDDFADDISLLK

| IC50 (MCF7) [µM] | Compound | further results |
| --- | --- | --- |
| 50 | O=C(/C=C/c1ccc(N2CCN(CCO)CC2)cc1)c1ccc(Cl)cc1 |  |
| 50 | O=C(/C=C/c1ccc(N2CCN(CCO)CC2)cc1)c1ccc(Br)cc1 |  |
|  | O=C(/C=C/c1ccc(N(Cc2ccccc2)Cc2ccccc2)cc1)c1ccco1 | zone of inhibition at 10000 µM [1]: 15 mm |
|  | COc1cc(C(=O)/C=C/c2ccc(N(Cc3ccccc3)Cc3ccccc3)cc2)cc(OC)c1OC | inhibition [2]: Active |
